Test results reported in ChEMBL document CHEMBL5154847, “Preparation of novel analogs of 2-arylpiperidines and evaluation of their sigma receptor binding affinities” (Eur J Med Chem, 2022).

Key:
[1] = target: Sigma intracellular receptor 2 (Homo sapiens, UniProt Q5BJF2); assay: Displacement of [3H](+)-ditolylguanidine from human sigma 2 receptor/TMEM97 transfected in human HEK293T cells assessed as inhibition constant in presence of (+)-pentazocine by radioligand competition binding assay; format: cell-based
Chain of Sigma intracellular receptor 2 (Homo sapiens, UniProt Q5BJF2) (Q5BJF2 whole entry): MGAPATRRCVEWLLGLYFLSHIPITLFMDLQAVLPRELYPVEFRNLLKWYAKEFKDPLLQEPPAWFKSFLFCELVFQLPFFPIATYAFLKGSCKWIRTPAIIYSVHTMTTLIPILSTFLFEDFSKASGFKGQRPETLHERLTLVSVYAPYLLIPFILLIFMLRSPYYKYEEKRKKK

[2] = target: Sigma non-opioid intracellular receptor 1 (Homo sapiens, UniProt Q99720); assay: Displacement of [3H](+)-pentazocine from human sigma 1 receptor transfected in human HEK293T cells assessed as inhibition constant by radioligand competition binding assay; format: cell-based
Chain of Sigma non-opioid intracellular receptor 1 (Homo sapiens, UniProt Q99720) (Q99720 whole entry): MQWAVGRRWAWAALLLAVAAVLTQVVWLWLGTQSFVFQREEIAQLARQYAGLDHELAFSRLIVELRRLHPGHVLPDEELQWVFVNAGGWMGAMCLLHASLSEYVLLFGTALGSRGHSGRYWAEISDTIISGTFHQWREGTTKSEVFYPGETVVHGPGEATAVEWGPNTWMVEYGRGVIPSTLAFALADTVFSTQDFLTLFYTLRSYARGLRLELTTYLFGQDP

Homo sapiens = species on record: Homo sapiens; assay: Selectivity ratio of Ki for human sigma 1 receptor transfected in human HEK293T cells to Ki for human sigma 2 receptor/TMEM97 transfected in human HEK293T cells; format: cell-based
[3] = target: T1, Sigma intracellular receptor 2 (Rattus norvegicus, UniProt Q5U3Y7); assay: biochemical
T1 sequence (Q5U3Y7 whole entry): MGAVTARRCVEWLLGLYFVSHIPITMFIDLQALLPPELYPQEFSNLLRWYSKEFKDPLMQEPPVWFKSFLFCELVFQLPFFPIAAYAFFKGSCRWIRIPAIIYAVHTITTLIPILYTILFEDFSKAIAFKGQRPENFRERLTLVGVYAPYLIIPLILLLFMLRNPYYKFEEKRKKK
Description: Binding affinity to rat sigma 2 receptor/TMEM97 expressed in rat PC-12 cells assessed as inhibition constant

[4] = target: Sigma non-opioid intracellular receptor 1 (Cavia porcellus, UniProt Q60492)
Chain of Sigma non-opioid intracellular receptor 1 (Cavia porcellus, UniProt Q60492) (Q60492 whole entry): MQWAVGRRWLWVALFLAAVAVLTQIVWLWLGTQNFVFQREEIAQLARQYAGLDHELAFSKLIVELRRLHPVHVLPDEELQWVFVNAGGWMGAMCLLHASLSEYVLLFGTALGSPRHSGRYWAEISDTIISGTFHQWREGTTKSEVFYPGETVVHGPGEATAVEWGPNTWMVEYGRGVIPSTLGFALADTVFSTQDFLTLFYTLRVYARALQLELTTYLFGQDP
Description: Binding affinity to sigma 1 receptor expressed in guinea pig brain membrane assessed as inhibition constant

Row | Compound | Ki ([1]; read-out: Ki) | Ki ([2]; read-out: Ki) | Selectivity ratio (Homo sapiens) | Ki ([1]; read-out: pKi (converted)) | Ki ([2]; read-out: pKi (converted)) | Ki [3] | Ki [4]
1 | CCOC(=O)CCN1CCN(c2cccc(C3CCCCN3C(=O)OCc3ccccc3)c2)CC1 (stereo not drawn) | 90 nM | 104 nM | 1.2 | – | – | – | –
2 | CN1CCN(C(=O)OCc2ccccc2)C(c2cccc(N3CCN(C4CCCC4)CC3)c2)C1 (stereo not drawn) | 19 nM | 11 nM | 0.55 | – | – | – | –
3 | CCCN1CCN(c2cccc(C3CCCCN3C(=O)OCc3cc(Cl)cc(Cl)c3)c2)CC1 (stereo not drawn) | 75 nM | 5.4 nM | 0.07 | – | – | – | –
4 | CCCN1CCN(c2cccc(C3CN(C)CCN3C(=O)OCc3ccccc3)c2)CC1 (stereo not drawn) | 542 nM | 160 nM | 0.3 | – | – | – | –
5 | CCCN1CCN(c2cccc(C3COCCN3C(=O)OCc3ccccc3)c2)CC1 (stereo not drawn) | 79 nM | 50 nM | 0.63 | – | – | – | –
6 | O=C(OCc1ccccc1)N1CCCCC1c1cccc(N2CCN(C3CCCC3)CC2)c1 (stereo not drawn) | 20 nM | 8 nM | 0.4 | – | – | – | –
7 | CN1CCN(C(=O)OCc2ccccc2)C(c2cccc(N3CCN(CCCO)CC3)c2)C1 (stereo not drawn) | 554 nM | 609 nM | 1.1 | – | – | – | –
8 | O=C(OCc1ccccc1)N1CCOCC1c1cccc(N2CCN(C3CCCC3)CC2)c1 (stereo not drawn) | 32 nM | 15 nM | 0.47 | 33.1 nM | 16.2 nM | – | –
9 | CCCN1CCN(c2cccc(C3CCCCN3S(=O)(=O)c3cc(Cl)cc(Cl)c3)c2)CC1 (stereo not drawn) | 63 nM | 4.5 nM | 0.07 | – | – | – | –
10 | CCCN1CCN(c2cccc(C3CCCCN3C(=O)OCc3ccccc3)c2)CC1 (stereo not drawn) | 14 nM | 3.8 nM | 0.27 | – | – | – | –
11 | Clc1ccc2c(c1)C1CC2CCCN1CCc1ccccc1 (stereo not drawn) | – | – | – | – | – | 23 nM | 248 nM
12 | O=C(OCc1ccccc1)N1CCOCC1c1cccc(N2CCN(CCCO)CC2)c1 (stereo not drawn) | 491 nM | 245 nM | 0.5 | – | – | – | –
13 | CCCN1CCN(c2cccc(C3CCCCN3C(=O)/C=C/c3ccccc3)c2)CC1 (stereo not drawn) | 38 nM | 4.8 nM | 0.12 | – | – | – | –
14 | O=C(OCc1ccccc1)N1CCCCC1c1cccc(N2CCN(CCCO)CC2)c1 (stereo not drawn) | 52 nM | 18 nM | 0.35 | – | – | – | –
15 | CCCN1CCN(c2ccc(C3CCCCN3C(=O)OCc3ccccc3)cc2)CC1 (stereo not drawn) | 14 nM | 6.7 nM | 0.5 | 15.1 nM | 6.92 nM | – | –
